# Read-outs that look alike come from different tables or passages of the source.
# Assays:
# SNAP-D2SR E95^2.65A = SNAP-D2SR E95^2.65A (Homo sapiens, UniProt P14416, E95A); test: functional cAMP assay, BRET biosensor; format: cell-based
# Protocol: Flp-In-CHO cells stably coexpressing the CAMYEL biosensor and DRs were plated into white 96-well CulturPlates (Revvity) and grown overnight. The cells were equilibrated in Hank’s balanced salt solution (HBSS) at 37 °C (or 25 °C when indicated) before starting the experiment. The cells were costimulated with the agonists and 10 μM forskolin for the indicated time frames when the BRET readings were captured. Coelenterazine (Nanolight Technology, AZ) was added at a final concentration of 5 μM at least 3 min prior to measurement. […] Net BRET was determined by subtraction of the vehicle control coadded with 10 μM forskolin. For phenoxybenzamine alkylation experiments, the cells were treated with 0.1, 0.3, or 1 μM phenoxybenzamine (Sigma-Aldrich) diluted in HBSS and equilibrated at 37 °C for 30 min prior to the commencement of the assay.
# (§1) Dose–response curves were fitted using the following three-parameter equation: response=bottom+top−bottom/1+10^(logEC50−log[A]) 5 where top and bottom represent the maximal and minimal asymptote of the dose response curve, [A] is the molar concentration of the agonist, and EC50 is the molar concentration of the agonist required to give a response half-way between bottom and top.
# SNAP-D2SR S121^3.39A = molecular target: T1, SNAP-D2SR S121^3.39A (Homo sapiens, UniProt P14416, S121A); test: cell membrane [3H]spiperone assay
# T1 sequence (P14416 1-414 isoform P14416-2 S121A): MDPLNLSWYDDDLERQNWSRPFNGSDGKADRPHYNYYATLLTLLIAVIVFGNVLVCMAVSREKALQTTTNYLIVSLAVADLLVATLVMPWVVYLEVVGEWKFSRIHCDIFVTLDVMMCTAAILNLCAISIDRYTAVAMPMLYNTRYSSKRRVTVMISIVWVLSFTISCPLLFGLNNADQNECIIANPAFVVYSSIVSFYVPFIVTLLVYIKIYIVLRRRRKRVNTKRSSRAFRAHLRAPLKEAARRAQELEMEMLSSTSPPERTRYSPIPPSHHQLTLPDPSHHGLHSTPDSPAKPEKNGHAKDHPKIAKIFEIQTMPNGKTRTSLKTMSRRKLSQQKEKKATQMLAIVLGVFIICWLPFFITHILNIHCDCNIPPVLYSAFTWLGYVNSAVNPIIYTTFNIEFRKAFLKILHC
# Protocol: (§2) Flp-In-CHO cells stably expressing the wild-type or mutant DRs were grown to 90% confluence in 175 cm^2 cell culture flasks. The cells were harvested in PBS containing 2 mM EDTA and centrifuged at 300g for 3 min. The resulting pellet was resuspended in ice-cold assay buffer (20 mM HEPES, 100 mM NaCl, 6 mM MgCl2, 1 mM EGTA, and 1 mM EDTA, pH 7.4), and the centrifugation step was repeated. The intact cell pellet was then resuspended in assay buffer and homogenized using a Polytron homogenizer. After centrifugation (1000g, 10 min), the pellet was discarded, and the supernatant was recentrifuged at 30,000g for 1 h at 4 °C using a Sorvall Evolution RC ultracentrifuge (Thermo Scientific). The resulting pellet was resuspended in assay buffer and stored in 250 μL aliquots at −80 °C. Membrane protein concentration was determined using a Pierce’s BCA protein assay kit (Thermo Fisher, Melbourne).
# (§3) [^3H]­Spiperone binding experiments using cell membranes were conducted in a 200 μL reaction volume in assay buffer (20 mM HEPES, 100 mM NaCl, 6 mM MgCl2, 1 mM EGTA, and 1 mM EDTA, pH 7.4) containing 100 μM GppNHp and 0.1% ascorbic acid in 96-well plates. […] In all cases, nonspecific binding was determined in the presence of 10 μM haloperidol. […] Filter bound radioactivity was detected as a chemiluminescence after the addition of MicroScint-20 (Revvity) in a MicroBeta plate counter (Revvity). […]
# SNAP-D2SR D80^2.50A [1] = molecular target: T2, SNAP-D2SR D80^2.50A (Homo sapiens, UniProt P14416, D80A); test: functional cAMP assay, BRET biosensor; format: cell-based
# T2 sequence (P14416 1-414 isoform P14416-2 D80A): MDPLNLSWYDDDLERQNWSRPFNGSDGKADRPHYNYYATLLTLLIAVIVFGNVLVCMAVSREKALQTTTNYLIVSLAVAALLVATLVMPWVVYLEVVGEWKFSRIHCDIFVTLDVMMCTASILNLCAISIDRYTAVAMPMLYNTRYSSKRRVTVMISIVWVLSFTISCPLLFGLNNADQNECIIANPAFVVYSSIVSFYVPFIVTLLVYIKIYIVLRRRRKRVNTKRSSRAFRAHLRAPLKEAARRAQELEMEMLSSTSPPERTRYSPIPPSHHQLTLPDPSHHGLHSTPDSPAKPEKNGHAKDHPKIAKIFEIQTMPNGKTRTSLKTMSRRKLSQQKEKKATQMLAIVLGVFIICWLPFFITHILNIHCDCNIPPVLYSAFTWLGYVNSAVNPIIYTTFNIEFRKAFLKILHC
# Protocol: (§4) Flp-In-CHO cells stably coexpressing the CAMYEL biosensor and DRs were plated into white 96-well CulturPlates (Revvity) and grown overnight. The cells were equilibrated in Hank’s balanced salt solution (HBSS) at 37 °C (or 25 °C when indicated) before starting the experiment. The cells were costimulated with the agonists and 10 μM forskolin for the indicated time frames when the BRET readings were captured. Coelenterazine (Nanolight Technology, AZ) was added at a final concentration of 5 μM at least 3 min prior to measurement. […] Net BRET was determined by subtraction of the vehicle control coadded with 10 μM forskolin.
# as §1
# D4.4R = D4.4R (Homo sapiens, UniProt P21917); test: cell membrane [3H]spiperone binding assay
# Sequence of D4.4R (P21917 whole entry): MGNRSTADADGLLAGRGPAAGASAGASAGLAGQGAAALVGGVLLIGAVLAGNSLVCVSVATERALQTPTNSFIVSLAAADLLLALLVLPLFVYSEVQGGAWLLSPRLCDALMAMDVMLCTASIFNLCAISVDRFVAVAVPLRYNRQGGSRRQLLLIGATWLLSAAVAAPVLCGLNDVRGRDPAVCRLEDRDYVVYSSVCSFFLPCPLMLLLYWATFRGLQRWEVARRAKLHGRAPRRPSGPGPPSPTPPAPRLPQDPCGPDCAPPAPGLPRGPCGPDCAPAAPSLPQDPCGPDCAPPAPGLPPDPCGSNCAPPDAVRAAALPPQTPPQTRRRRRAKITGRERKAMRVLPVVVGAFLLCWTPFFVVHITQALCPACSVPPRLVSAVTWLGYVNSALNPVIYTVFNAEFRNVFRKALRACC
# Protocol: as §2
# [^3H]­Spiperone binding experiments using cell membranes were conducted in a 200 μL reaction volume in assay buffer (20 mM HEPES, 100 mM NaCl, 6 mM MgCl2, 1 mM EGTA, and 1 mM EDTA, pH 7.4) containing 100 μM GppNHp and 0.1% ascorbic acid in 96-well plates. […] In all cases, nonspecific binding was determined in the presence of 10 μM haloperidol. […] Filter bound radioactivity was detected as a chemiluminescence after the addition of MicroScint-20 (Revvity) in a MicroBeta plate counter (Revvity).
# SNAP-D2SR T398^7.54A = SNAP-D2SR T398^7.54A (Homo sapiens, UniProt P14416, T427A); test: cell membrane [3H]spiperone assay
# Sequence of SNAP-D2SR T398^7.54A (P14416 1-414 isoform P14416-2 T398A): as the sequence (P14416 1-414 isoform P14416-2 D80A) above, with A80D, T398A counted along it
# Protocol: as §2, §3
# D2R = molecular target: T3, D2R (Homo sapiens, UniProt P14416); test: D2R internalization whole cell ELISA; format: cell-based
# T3 construct: expressed in transfected cells; host or cells: CHO cells stably overexpressing GRK2, transient
# T3 sequence (P14416 whole entry): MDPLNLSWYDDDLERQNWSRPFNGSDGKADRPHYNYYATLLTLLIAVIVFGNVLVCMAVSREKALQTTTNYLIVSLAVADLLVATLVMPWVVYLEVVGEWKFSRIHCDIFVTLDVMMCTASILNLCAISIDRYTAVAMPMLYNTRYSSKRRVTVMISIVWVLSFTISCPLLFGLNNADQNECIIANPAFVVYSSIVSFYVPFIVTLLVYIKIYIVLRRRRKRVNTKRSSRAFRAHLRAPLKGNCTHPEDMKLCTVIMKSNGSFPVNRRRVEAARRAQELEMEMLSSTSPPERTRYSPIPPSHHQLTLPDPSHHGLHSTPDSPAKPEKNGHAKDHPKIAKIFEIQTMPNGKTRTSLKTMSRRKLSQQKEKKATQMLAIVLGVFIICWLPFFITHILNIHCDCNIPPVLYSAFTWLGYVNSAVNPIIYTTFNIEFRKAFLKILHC
# D2LR [2] = molecular target: T4, D2LR (Homo sapiens, UniProt P14416); test: β-arrestin-2 recruitment BRET assay; format: cell-based
# T4 sequence (P14416 whole entry): as above
# Protocol: Flp-In-CHO cells were seeded at a density of 2,000,000 cells per 10 cm dish and were transfected the following day using polyethylenimine as a transfection reagent. To assess β-arrestin-2 recruitment to the D2LR, the cells were transfected with 1 μg of Rluc8-tagged D2LR, 4 μg of YFP-β-arrestin-2, and 2 μg of GRK2. Twenty-four hours after transfection, the cells were plated into 96-well CulturPlates (PerkinElmer) and grown overnight. […] The cells were incubated with coelenterazine (Promega) at a final concentration of 5 μM for 5 min followed by stimulation with the agonists for an additional 5 min before the BRET readings were captured.
# D2LR [3] = molecular target: T4, D2LR; test: cell membrane [3H]raclopride binding assay; conditions: for Logα_DA / α′_DA: cooperativity with DA
# SNAP-D2SR I73^2.43A = SNAP-D2SR I73^2.43A (Homo sapiens, UniProt P14416, I73A); test: cell membrane [3H]spiperone assay
# Sequence of SNAP-D2SR I73^2.43A (P14416 1-414 isoform P14416-2 I73A): as the sequence (P14416 1-414 isoform P14416-2 D80A) above, with I73A, A80D counted along it
# Protocol: as §2, §3
# SNAP-D2SR D80^2.50A [4] = molecular target: T2, SNAP-D2SR D80^2.50A; test: cell membrane [3H]spiperone assay
# Protocol: as §2, §3
# SNAP-D2SR N52^1.50A = SNAP-D2SR N52^1.50A (Homo sapiens, UniProt P14416, N52A); test: functional cAMP assay, BRET biosensor; format: cell-based
# Sequence of SNAP-D2SR N52^1.50A (P14416 1-414 isoform P14416-2 N52A): as the sequence (P14416 1-414 isoform P14416-2 D80A) above, with N52A, A80D counted along it
# Protocol: as §4, §1
# SNAP-D2SR F404^8.50A = SNAP-D2SR F404^8.50A (Homo sapiens, UniProt P14416, F433A); test: cell membrane [3H]spiperone assay
# Sequence of SNAP-D2SR F404^8.50A (P14416 1-414 isoform P14416-2 F404A): as the sequence (P14416 1-414 isoform P14416-2 D80A) above, with A80D, F404A counted along it
# Protocol: as §2, §3
# [5] = +0.1 mM GppNHp, cooperativity with [3H]raclopride
# [6] = +PTX, cooperativity with [3H]raclopride
# [7] = +urea, cooperativity with [3H]raclopride
# Sequence of SNAP-D2SR E95^2.65A (P14416 1-414 isoform P14416-2 E95A): as the sequence (P14416 1-414 isoform P14416-2 D80A) above, with A80D, E95A counted along it
smiles,measurement,setting,value
"COc1cc(CO)c(F)cc1C(=O)n1ccc2c(F)cccc21 [D2 PAM2, [5-fluoro-4-(hydroxymethyl)-2-methoxyphenyl]-(4-fluoro-1H-indol-1-yl)methanone]",Kb,SNAP-D2SR E95^2.65A,3.2 µM
same,Logτ,SNAP-D2SR E95^2.65A,-0.46 ± 0.07
same,pKB,SNAP-D2SR E95^2.65A,5.49 ± 0.12
same,τ,SNAP-D2SR E95^2.65A,0.35
same,Logαβ,SNAP-D2SR E95^2.65A; with DA,1.07 ± 0.10
same,αβ,SNAP-D2SR E95^2.65A; with DA,11.7
same,fold shift + 10 μM PAM,SNAP-D2SR S121^3.39A; shift of DA IC50,2.6 fold
same,ΔpIC50 + 10 μM PAM,SNAP-D2SR S121^3.39A; shift of DA pIC50,0.41 ± 0.18
same,D2 PAM2 log τ,SNAP-D2SR D80^2.50A [1],–0.78 ± 0.25
same,D2 PAM2 pKB,SNAP-D2SR D80^2.50A [1],4.82 ± 0.18
same,D2 PAM2 τ,SNAP-D2SR D80^2.50A [1],0.17
same,D2 PAM2 log αβ,SNAP-D2SR D80^2.50A [1]; with DA,0.96 ± 0.25
same,D2 PAM2 αβ,SNAP-D2SR D80^2.50A [1]; with DA,9.0
same,ability to potentiate DA binding at the D4R,D4.4R,no activity was observed
same,fold shift + 10 μM PAM,SNAP-D2SR T398^7.54A; shift of DA IC50,1 fold
same,ΔpIC50 + 10 μM PAM,SNAP-D2SR T398^7.54A; shift of DA pIC50,–0.01 ± 0.05
same,pKB,D2R,5.30 ± 0.29
same,LogτB,D2R; intrinsic efficacy,-2.20 ± 0.23
same,Logαβ,D2R; with dopamine,0.99 ± 0.21
same,pKB,D2LR [2],5.18 ± 0.12
same,LogτB,D2LR [2]; intrinsic efficacy,-1.30 ± 0.16
same,Logαβ,D2LR [2]; with dopamine,1.52 ± 0.12
same,fold lower affinity in cell membranes than in whole cell binding,D2LR [3],4 fold
same,pKB_D2 PAM,D2LR [3]; +0.1 mM GppNHp,4.65 ± 0.05
same,Logα_DA,D2LR [3]; +0.1 mM GppNHp,1.30 ± 0.02
same,α′_DA,D2LR [3]; +0.1 mM GppNHp,20
same,Logα_[3H]raclo,D2LR [3]; [5],–0.19 ± 0.05
same,α_[3H]raclo,D2LR [3]; [5],0.65
same,Kb,"D2LR [3]; +0.1 mM GppNHp, read-out: KB_D2 PAM (converted)",22.5 µM
same,pKB_D2 PAM,D2LR [3]; +PTX,4.54 ± 0.03
same,Logα_DA,D2LR [3]; +PTX,1.22 ± 0.07
same,α′_DA,D2LR [3]; +PTX,17
same,Logα_[3H]raclo,D2LR [3]; [6],–0.37 ± 0.10
same,α_[3H]raclo,D2LR [3]; [6],0.42
same,Kb,"D2LR [3]; +PTX, read-out: KB_D2 PAM (converted)",29 µM
same,pKB_D2 PAM,D2LR [3]; +urea,4.53 ± 0.15
same,Logα_DA,D2LR [3]; +urea,1.35 ± 0.12
same,α′_DA,D2LR [3]; +urea,22
same,Logα_[3H]raclo,D2LR [3]; [7],–0.06 ± 0.08
same,α_[3H]raclo,D2LR [3]; [7],0.87
same,Kb,"D2LR [3]; +urea, read-out: KB_D2 PAM (converted)",30 µM
same,logα_DA,D2LR [3]; D2LR,1.30 ± 0.02
same,logα_[3H]raclo,D2LR [3]; D2LR,-0.19 ± 0.05
same,α_DA,D2LR [3]; D2LR,20
same,α_[3H]raclo,D2LR [3]; D2LR,0.64
same,Kb,"D2LR [3]; cell membrane preparations, read-out: KB",22 µM
same,fold shift + 10 μM PAM,SNAP-D2SR I73^2.43A; shift of DA IC50,1.5 fold
same,ΔpIC50 + 10 μM PAM,SNAP-D2SR I73^2.43A; shift of DA pIC50,0.17 ± 0.09
same,fold shift + 10 μM PAM,SNAP-D2SR D80^2.50A [4]; shift of DA IC50,0.9 fold
same,ΔpIC50 + 10 μM PAM,SNAP-D2SR D80^2.50A [4]; shift of DA pIC50,–0.04 ± 0.27
same,D2 PAM2 log τ,SNAP-D2SR N52^1.50A,0.23 ± 0.07
same,D2 PAM2 pKB,SNAP-D2SR N52^1.50A,4.89 ± 0.21
same,D2 PAM2 τ,SNAP-D2SR N52^1.50A,1.69
same,Kb,SNAP-D2SR N52^1.50A; read-out: D2 PAM2 KB (converted),12.8 µM
same,D2 PAM2 log αβ,SNAP-D2SR N52^1.50A; with DA,1.18 ± 0.28
same,D2 PAM2 αβ,SNAP-D2SR N52^1.50A; with DA,15
same,fold shift + 10 μM PAM,SNAP-D2SR F404^8.50A; shift of DA IC50,1.5 fold
same,ΔpIC50 + 10 μM PAM,SNAP-D2SR F404^8.50A; shift of DA pIC50,0.19 ± 0.18

# Source: PMC12186844 (ACS Chemical Neuroscience, 2025)
